Source: the NIST ThermoML archive (doi:10.1021/je0301895)
± gives the expanded uncertainty stated by the source.

How the values were obtained:
[1] = xn = mol fraction of the nth substance listed; conditions: 298.15 K, 101 kPa, Liquid
[2] = 298.15 K; 101.33 kPa; Liquid
[3] = Solid-liquid equilibrium temperature; conditions: 101.3 kPa; Crystal

CCCCCCCCN [1-octanamine] + CCCCCCCCCO
[1]
Conditions | excess molar volume [m3/mol]
x2 = 0.0489 | -1.701e-07 ± 2.1e-08
x2 = 0.1572 | -4.742e-07 ± 2.3e-08
x2 = 0.2155 | -6.354e-07 ± 2.4e-08
x2 = 0.2763 | -7.661e-07 ± 2.5e-08
x2 = 0.3283 | -8.704e-07 ± 2.5e-08
x2 = 0.356 | -9.277e-07 ± 2.6e-08
x2 = 0.4125 | -1.005e-06 ± 2.6e-08
x2 = 0.4566 | -1.043e-06 ± 2.6e-08
x2 = 0.4998 | -1.055e-06 ± 2.6e-08
x2 = 0.5326 | -1.057e-06 ± 2.6e-08
x2 = 0.5732 | -1.049e-06 ± 2.6e-08
x2 = 0.6064 | -1.016e-06 ± 2.6e-08
x2 = 0.637 | -9.761e-07 ± 2.6e-08
x2 = 0.6602 | -9.511e-07 ± 2.6e-08
x2 = 0.7321 | -8.074e-07 ± 2.5e-08
x2 = 0.7905 | -6.629e-07 ± 2.4e-08
x2 = 0.8753 | -4.313e-07 ± 2.3e-08
x2 = 0.961 | -1.661e-07 ± 2.1e-08

CCCCCCCCN [1-octanamine] + CCCCCCCCCCCO
[1]
Conditions | excess molar volume [m3/mol]
x2 = 0.0752 | -2.147e-07 ± 2.1e-08
x2 = 0.1043 | -2.984e-07 ± 2.2e-08
x2 = 0.1334 | -3.833e-07 ± 2.2e-08
x2 = 0.2069 | -5.724e-07 ± 2.3e-08
x2 = 0.3217 | -8.29e-07 ± 2.5e-08
x2 = 0.4007 | -9.437e-07 ± 2.6e-08
x2 = 0.4491 | -9.846e-07 ± 2.6e-08
x2 = 0.4941 | -1.008e-06 ± 2.6e-08
x2 = 0.5463 | -1.008e-06 ± 2.6e-08
x2 = 0.5958 | -9.803e-07 ± 2.6e-08
x2 = 0.639 | -9.391e-07 ± 2.6e-08
x2 = 0.6894 | -8.58e-07 ± 2.5e-08
x2 = 0.7458 | -7.411e-07 ± 2.4e-08
x2 = 0.7961 | -6.06e-07 ± 2.4e-08
x2 = 0.873 | -4.122e-07 ± 2.2e-08
x2 = 0.9158 | -2.804e-07 ± 2.2e-08

CCCCCCCCN [1-octanamine] + CCCCCCCCO
[1]
Conditions | excess molar volume [m3/mol]
x2 = 0.043 | -1.921e-07 ± 2.1e-08
x2 = 0.13 | -4.625e-07 ± 2.3e-08
x2 = 0.2358 | -7.264e-07 ± 2.4e-08
x2 = 0.3041 | -8.581e-07 ± 2.5e-08
x2 = 0.347 | -9.393e-07 ± 2.6e-08
x2 = 0.4158 | -1.024e-06 ± 2.6e-08
x2 = 0.4571 | -1.062e-06 ± 2.6e-08
x2 = 0.5174 | -1.071e-06 ± 2.6e-08
x2 = 0.554 | -1.068e-06 ± 2.6e-08
x2 = 0.5877 | -1.052e-06 ± 2.6e-08
x2 = 0.6385 | -1.012e-06 ± 2.6e-08
x2 = 0.709 | -9.034e-07 ± 2.5e-08
x2 = 0.7589 | -8.079e-07 ± 2.5e-08
x2 = 0.875 | -5.102e-07 ± 2.3e-08
x2 = 0.929 | -3.207e-07 ± 2.2e-08
x2 = 0.992 | -7.24e-08 ± 2e-08

CCCCCCCCCO [nonan-1-ol]
Conditions | Solid-liquid equilibrium temperature [K] | mass density [kg/m3]
[2] | – | 824.6 ± 0.28
[3] | 268.1 ± 0.4 | –

CCCCCCCCN [1-octanamine] + CCCCCCCCCCO
[1]
Conditions | excess molar volume [m3/mol]
x2 = 0.0791 | -2.401e-07 ± 2.1e-08
x2 = 0.1302 | -3.963e-07 ± 2.2e-08
x2 = 0.2056 | -6.005e-07 ± 2.4e-08
x2 = 0.2788 | -7.66e-07 ± 2.5e-08
x2 = 0.3263 | -8.612e-07 ± 2.5e-08
x2 = 0.3863 | -9.584e-07 ± 2.6e-08
x2 = 0.422 | -1.002e-06 ± 2.6e-08
x2 = 0.4623 | -1.03e-06 ± 2.6e-08
x2 = 0.5138 | -1.042e-06 ± 2.6e-08
x2 = 0.5525 | -1.039e-06 ± 2.6e-08
x2 = 0.5811 | -1.023e-06 ± 2.6e-08
x2 = 0.6153 | -9.952e-07 ± 2.6e-08
x2 = 0.6452 | -9.534e-07 ± 2.6e-08
x2 = 0.6956 | -8.646e-07 ± 2.5e-08
x2 = 0.7565 | -7.349e-07 ± 2.4e-08
x2 = 0.8463 | -4.965e-07 ± 2.3e-08
x2 = 0.9025 | -3.208e-07 ± 2.2e-08
x2 = 0.97 | -1.278e-07 ± 2.1e-08

CCCCCCCCN [1-octanamine]
Conditions | Solid-liquid equilibrium temperature [K] | mass density [kg/m3]
[2] | – | 779.95 ± 0.84
[3] | 273.37 ± 0.4 | –

CCCCCCCCO [octan-1-ol]
Conditions | Solid-liquid equilibrium temperature [K] | mass density [kg/m3]
[2] | – | 822.21 ± 0.28
[3] | 258.03 ± 0.4 | –

CCCCCCCCCCO [decan-1-ol]
Conditions | Solid-liquid equilibrium temperature [K] | mass density [kg/m3]
[2] | – | 826.64 ± 0.28
[3] | 278.67 ± 0.4 | –

CCCCCCCCCCCO [1-undecanol]
Conditions | Solid-liquid equilibrium temperature [K] | mass density [kg/m3]
[2] | – | 829.34 ± 0.28
[3] | 289.63 ± 0.8 | –
